Assay results reported in PubChem BioAssay AID1963874 (Molecular Pharmacology Branch, DTP, NCI, 2024).

Tested on: 253994-281-T-J1-PDC KRAS-mutant spheroids with HUVEC/MSC, viability
Test: Anticancer human tumor 253994-281-T-J1-PDC patient-derived colorectal carcinoma cell line growth inhibition [KRAS2]
Conditions: for viability, T/C: stronger effect = lower value
Procedure, shortened: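 KRAS-mutant tumor cells were grown as spheroids with HUVEC endothelial cells and human MSCs as stroma. Targeted agents were tested alone and with KRAS pathway inhibitors. Doses started at or near clinical Cmax, or 10 microM, descending half-log.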

[1] = curve of first compound, second compound 0.1 µM
[2] = curve of first compound, second compound 0.316 µM
[3] = curve of first compound, second compound 1 µM
[4] = curve of first compound, second compound 3.16 µM
[5] = curve of first compound, second compound 10 µM
[6] = second compound 0.1 µM, first compound 0.0316 µM
[7] = second compound 0.1 µM, first compound 0.1 µM
[8] = second compound 0.1 µM, first compound 0.316 µM
[9] = second compound 0.1 µM, first compound 1 µM
[10] = second compound 0.1 µM, first compound 3.16 µM
[11] = second compound 0.1 µM, first compound 10 µM
[12] = second compound 0.316 µM, first compound 0.0316 µM
[13] = second compound 0.316 µM, first compound 0.1 µM
[14] = second compound 0.316 µM, first compound 0.316 µM
[15] = second compound 0.316 µM, first compound 1 µM
[16] = second compound 0.316 µM, first compound 3.16 µM
[17] = second compound 0.316 µM, first compound 10 µM
[18] = second compound 1 µM, first compound 0.0316 µM
[19] = second compound 1 µM, first compound 0.1 µM
[20] = second compound 1 µM, first compound 0.316 µM
[21] = second compound 1 µM, first compound 1 µM
[22] = second compound 1 µM, first compound 3.16 µM
[23] = second compound 1 µM, first compound 10 µM
[24] = second compound 3.16 µM, first compound 0.0316 µM
[25] = second compound 3.16 µM, first compound 0.1 µM
[26] = second compound 3.16 µM, first compound 0.316 µM
[27] = second compound 3.16 µM, first compound 1 µM
[28] = second compound 3.16 µM, first compound 3.16 µM
[29] = second compound 3.16 µM, first compound 10 µM
[30] = second compound 10 µM, first compound 0.0316 µM
[31] = second compound 10 µM, first compound 0.1 µM
[32] = second compound 10 µM, first compound 0.316 µM
[33] = second compound 10 µM, first compound 1 µM
[34] = second compound 10 µM, first compound 3.16 µM
[35] = second compound 10 µM, first compound 10 µM
[36] = second compound 0.1 µM, first compound 0.01 µM
[37] = second compound 0.316 µM, first compound 0.01 µM
[38] = second compound 1 µM, first compound 0.01 µM
[39] = second compound 3.16 µM, first compound 0.01 µM
[40] = second compound 10 µM, first compound 0.01 µM
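Also: spheroids exposed to agents for seven days before readout.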
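For viability, T/C in this document: percent of DMSO vehicle control viability.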

SMILES | IC50 [1] [µM] | IC50 [2] [µM] | IC50 [3] [µM] | IC50 [4] [µM] | IC50 [5] [µM] | viability, T/C [6] [%] | viability, T/C [7] [%] | viability, T/C [8] [%] | viability, T/C [9] [%] | viability, T/C [10] [%] | viability, T/C [12] [%] | viability, T/C [13] [%] | viability, T/C [14] [%] | viability, T/C [15] [%] | viability, T/C [18] [%] | viability, T/C [19] [%] | viability, T/C [24] [%] | viability, T/C [25] [%] | viability, T/C [30] [%] | viability, T/C [31] [%] | other results
CC(C)NCC(C(=O)N1CCN(c2ncnc3c2C(C)CC3O)CC1)c1ccc(Cl)cc1 (stereo not drawn) + COc1cc2nc(C)nc(NC(C)c3cc(N)cc(C(F)(F)F)c3)c2cc1OC1CCOC1 | > 10 | > 10 | > 10 | > 10 | > 10 | 86.1 | 97.9 | 92.5 | 94.6 | 93 | 86.3 | 85.7 | 78.7 | 87.6 | 84.3 | 83.4 | 83.2 | 87.4 | 67.9 | 79.8 | viability, T/C [11]: 97.1%; viability, T/C [16]: 82%; viability, T/C [17]: 90.2%; viability, T/C [20]: 94.1%; viability, T/C [21]: 86.2%; viability, T/C [22]: 92.4%; viability, T/C [23]: 96.4%; viability, T/C [26]: 85.9%; viability, T/C [27]: 94.2%; viability, T/C [28]: 92.3%; viability, T/C [29]: 74.7%; viability, T/C [32]: 85.5%; viability, T/C [33]: 79.5%; viability, T/C [34]: 71.2%; viability, T/C [35]: 83.7%
CC1COCCN1c1cc(-c2ccnn2C)c2ccnc(-c3ccn[nH]3)c2n1 (stereo not drawn) + COc1cc2nc(C)nc(NC(C)c3cc(N)cc(C(F)(F)F)c3)c2cc1OC1CCOC1 | > 3.16 | 0.169 | 0.151 | 0.0996 | 0.0962 | 72.8 | 65.3 | 47.9 | 52.5 | 55.1 | 83.2 | 55.2 | 39.1 | 37.6 | 74.8 | 56.5 | 82.5 | 49.9 | 74.6 | 49.2 | viability, T/C [36]: 95.2%; viability, T/C [37]: 88.4%; viability, T/C [16]: 55.6%; viability, T/C [38]: 92.5%; viability, T/C [20]: 35%; viability, T/C [21]: 40.4%; viability, T/C [22]: 54.5%; viability, T/C [39]: 80.6%; viability, T/C [26]: 37.2%; viability, T/C [27]: 39%; viability, T/C [28]: 49.2%; viability, T/C [40]: 75.7%; viability, T/C [32]: 31.8%; viability, T/C [33]: 41%; viability, T/C [34]: 42.4%
COc1cc(Nc2ncc3c(n2)-c2ccc(Cl)cc2C(c2c(F)cccc2OC)=NC3)ccc1C(=O)O |  |  |  |  |  |  |  |  |  |  |  |  |  |  |  |  |  |  |  |  | viability, T/C (compound 0.0316 µM): 64.9% [middle of 5 runs]; viability, T/C (compound 0.1 µM): 38.8% [middle of 5 runs]; viability, T/C (compound 0.316 µM): 39.4% [middle of 5 runs]; viability, T/C (compound 1 µM): 44.9% [middle of 5 runs]; viability, T/C (compound 10 µM): 60.8% [middle of 5 runs]
CC1OCC2(CCN(c3cnc(Sc4ccnc(N)c4Cl)c(N)n3)CC2)C1N (stereo not drawn) + CNCc1ccccc1-c1csc(C(C)Nc2nc(C)nc3cc(OC)c(OC)cc23)c1 | > 10 | > 10 | 4.61 | < 0.0316 | < 0.0316 | 93 | 96.7 | 93.3 | 87.9 | 79.1 | 94.7 | 83.9 | 85.6 | 82.5 | 90.3 | 95.2 | 43.8 | 28 | 0.21 | 0.25 | viability, T/C [11]: 51.8%; viability, T/C [16]: 68.1%; viability, T/C [17]: 51.8%; viability, T/C [20]: 78.7%; viability, T/C [21]: 64.8%; viability, T/C [22]: 60.9%; viability, T/C [23]: 36.5%; viability, T/C [26]: 31.1%; viability, T/C [27]: 31.2%; viability, T/C [28]: 24.8%; viability, T/C [29]: 0.81%; viability, T/C [32]: 0.22%; viability, T/C [33]: 0.19%; viability, T/C [34]: 0.23%; viability, T/C [35]: 0.21%
COC(=O)c1ccc2c(C(=Nc3ccc(N(C)C(=O)CN4CCN(C)CC4)cc3)c3ccccc3)c(O)[nH]c2c1 + C=CC(=O)N1CCN(c2nc(=O)n(-c3c(C)ccnc3C(C)C)c3nc(-c4c(O)cccc4F)c(F)cc23)C(C)C1 | > 10 | 5.61 | 5.47 | 4.8 | 4.3 | 124 | 115 | 98.4 | 98.2 | 86.8 | 100 | 99.4 | 92.3 | 92.7 | 121 | 108 | 104 | 108 | 111 | 116 | viability, T/C [11]: 60.1%; viability, T/C [16]: 83.7%; viability, T/C [17]: 15.8%; viability, T/C [20]: 96.7%; viability, T/C [21]: 92.9%; viability, T/C [22]: 75.5%; viability, T/C [23]: 26.1%; viability, T/C [26]: 91%; viability, T/C [27]: 90.2%; viability, T/C [28]: 76.2%; viability, T/C [29]: 9.17%; viability, T/C [32]: 101%; viability, T/C [33]: 86.9%; viability, T/C [34]: 73.4%; viability, T/C [35]: 0.56%
C=CC(=O)N1CCN(c2nc(OCC3CCCN3C)nc3c2CCN(c2cccc4cccc(C)c24)C3)CC1CC#N (stereo not drawn) |  |  |  |  |  |  |  |  |  |  |  |  |  |  |  |  |  |  |  |  | viability, T/C (compound 0.0316 µM): 94.7% [middle of 17 runs]; viability, T/C (compound 0.1 µM): 93.6% [middle of 17 runs]; IC50 (compound alone, run of 09/02/2021): > 3.16 µM
CC(C)n1nc(-c2ccc3oc(N)nc3c2)c2c(N)ncnc21 + COc1cc2nc(C)nc(NC(C)c3cc(N)cc(C(F)(F)F)c3)c2cc1OC1CCOC1 | > 0.1 | > 0.1 | > 0.1 | > 0.1 | 0.0849 | 82.7 | 56.8 |  |  |  | 74.4 | 56.2 |  |  | 76.5 | 51 | 72.8 | 57.2 | 64.1 | 47.6 | viability, T/C (second compound 0.1 µM, first compound 0.000316 µM): 82.7%; viability, T/C (second compound 0.1 µM, first compound 0.001 µM): 102%; viability, T/C (second compound 0.1 µM, first compound 0.00316 µM): 74.1%; viability, T/C [36]: 87%; viability, T/C (second compound 0.316 µM, first compound 0.000316 µM): 86.4%; viability, T/C (second compound 0.316 µM, first compound 0.001 µM): 83.6%; viability, T/C (second compound 0.316 µM, first compound 0.00316 µM): 88%; viability, T/C [37]: 79.3%; viability, T/C (second compound 1 µM, first compound 0.000316 µM): 90%; viability, T/C (second compound 1 µM, first compound 0.001 µM): 97.6%; viability, T/C (second compound 1 µM, first compound 0.00316 µM): 82%; viability, T/C [38]: 82.7%; viability, T/C (second compound 3.16 µM, first compound 0.000316 µM): 81.9%; viability, T/C (second compound 3.16 µM, first compound 0.001 µM): 94.5%; viability, T/C (second compound 3.16 µM, first compound 0.00316 µM): 85.5%; viability, T/C [39]: 82%; viability, T/C (second compound 10 µM, first compound 0.000316 µM): 78.5%; viability, T/C (second compound 10 µM, first compound 0.001 µM): 79.5%; viability, T/C (second compound 10 µM, first compound 0.00316 µM): 77.2%; viability, T/C [40]: 79.5%
